# Experimental data taken from patent US12227495B2, “Herbicidal compounds” (SYNGENTA CROP PROTECTION AG, priority 2018, dated 2025).
# Key:
# Type in all cases: in vivo
# Conditions in all cases: evaluated after 13 days
# Solanum nigrum (SOLNI) [1] = experiment: Pre-emergence herbicide test, glasshouse, percentage damage
# Summary of the method: (§1)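 Compounds are applied as aqueous sprays at 500 g/ha, unless otherwise stated, either one day after sowing or to 8-day-old plants. Injury is assessed after 13 days and expressed on a 1-5 scale, where 5 means 81-100% damage.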
# Setaria faberi (SETFA) [2] = experiment: as above
# Summary of the method: as §1
# [3] = tested on: Echinochloa crus-galli (ECHCG); experiment: as above
# Summary of the method: as §1
# [4] = tested on: Ipomoea hederacea (IPOHE); experiment: as above
# Summary of the method: as §1
# [5] = tested on: Amaranthus retoflexus (AMARE); experiment: as above
# Summary of the method: as §1
# Lolium perenne (LOLPE) [6] = experiment: as above
# Summary of the method: as §1
# Solanum nigrum (SOLNI) [7] = experiment: Post-emergence herbicide test, glasshouse, percentage damage
# Summary of the method: as §1
# Setaria faberi (SETFA) [8] = experiment: as above
# Summary of the method: as §1
# [9] = tested on: Echinochloa crus-galli (ECHCG); experiment: as above
# Summary of the method: as §1
# [10] = tested on: Ipomoea hederacea (IPOHE); experiment: as above
# Summary of the method: as §1
# [11] = tested on: Amaranthus retoflexus (AMARE); experiment: as above
# Summary of the method: as §1
# Lolium perenne (LOLPE) [12] = experiment: as above
# Summary of the method: as §1
Structure (SMILES),Pre-emergence Test SOLNI percentage damage (five point scale) (Solanum nigrum (SOLNI) [1]; rate 1000 g/ha),Pre-emergence Test SETFA percentage damage (five point scale) (Setaria faberi (SETFA) [2]; rate 1000 g/ha),Pre-emergence Test ECHCG percentage damage (five point scale) ([3]; rate 1000 g/ha),Pre-emergence Test IPOHE percentage damage (five point scale) ([4]; rate 1000 g/ha),Pre-emergence Test AMARE percentage damage (five point scale) ([5]; rate 1000 g/ha),Pre-emergence Test LOLPE percentage damage (five point scale) (Lolium perenne (LOLPE) [6]; rate 1000 g/ha),"percentage damage caused to the plant, SOLNI (Solanum nigrum (SOLNI) [7]; 1000 g/ha)","percentage damage caused to the plant, SETFA (Setaria faberi (SETFA) [8]; 1000 g/ha)","percentage damage caused to the plant, ECHCG ([9]; 1000 g/ha)","percentage damage caused to the plant, IPOHE ([10]; 1000 g/ha)","percentage damage caused to the plant, AMARE ([11]; 1000 g/ha)","percentage damage caused to the plant, LOLPE (Lolium perenne (LOLPE) [12]; 1000 g/ha)",also measured
Fc1cc(Cl)cnc1Oc1ccccc1-n1cncn1 [Compound A29],3 (3=41-60%),4 (4=61-80%),1 (1=0-20%),1 (1=0-20%),5 (5=81-100%),1 (1=0-20%),4 (4=61-80%),2 (2=21-40%),1 (1=0-20%),2 (2=21-40%),4 (4=61-80%),1 (1=0-20%),–
FC(F)c1cc(-c2c(Br)cccc2Oc2ncc(Cl)cc2Cl)on1 [Compound A89],2 (2=21-40%),4 (4=61-80%),4 (4=61-80%),3 (3=41-60%),4 (4=61-80%),2 (2=21-40%),4 (4=61-80%),5 (5=81-100%),4 (4=61-80%),4 (4=61-80%),5 (5=81-100%),3 (3=41-60%),–
Fc1cc(Cl)cnc1Oc1c(Cl)cccc1-c1cc(C(F)F)no1 [Compound A95],1 (1=0-20%),3 (3=41-60%),4 (4=61-80%),1 (1=0-20%),4 (4=61-80%),1 (1=0-20%),4 (4=61-80%),4 (4=61-80%),3 (3=41-60%),1 (1=0-20%),4 (4=61-80%),3 (3=41-60%),–
FC(F)(F)c1cnn(-c2ccccc2Oc2ccc(Cl)cn2)c1 [Compound A17],5 (5=81-100%),5 (5=81-100%),5 (5=81-100%),5 (5=81-100%),5 (5=81-100%),5 (5=81-100%),5 (5=81-100%),5 (5=81-100%),5 (5=81-100%),5 (5=81-100%),5 (5=81-100%),5 (5=81-100%),–
O=[N+]([O-])c1cc(Cl)cnc1Oc1cccc(F)c1-c1cc(C(F)F)no1 [Compound A38],1 (1=0-20%),1 (1=0-20%),1 (1=0-20%),1 (1=0-20%),4 (4=61-80%),1 (1=0-20%),5 (5=81-100%),1 (1=0-20%),1 (1=0-20%),1 (1=0-20%),5 (5=81-100%),1 (1=0-20%),–
Fc1cnc(Oc2cccc(Cl)c2-c2cc(C(F)F)no2)c(F)c1 [Compound A114],4 (4=61-80%),5 (5=81-100%),5 (5=81-100%),5 (5=81-100%),5 (5=81-100%),5 (5=81-100%),5 (5=81-100%),5 (5=81-100%),4 (4=61-80%),5 (5=81-100%),5 (5=81-100%),4 (4=61-80%),–
N#Cc1cnc(Oc2cccc(F)c2-c2cc(C(F)F)no2)c(F)c1 [Compound A23],4 (4=61-80%),5 (5=81-100%),5 (5=81-100%),5 (5=81-100%),5 (5=81-100%),5 (5=81-100%),5 (5=81-100%),5 (5=81-100%),5 (5=81-100%),5 (5=81-100%),5 (5=81-100%),5 (5=81-100%),–
Fc1cc(Cl)cnc1Oc1cccc(F)c1-c1cc(C(F)(F)F)no1 [Compound A31],5 (5=81-100%),5 (5=81-100%),5 (5=81-100%),5 (5=81-100%),5 (5=81-100%),5 (5=81-100%),5 (5=81-100%),5 (5=81-100%),5 (5=81-100%),5 (5=81-100%),5 (5=81-100%),5 (5=81-100%),–
N#Cc1ccc(Oc2cccc(Br)c2-c2cc(C(F)F)no2)nc1 [Compound A102],4 (4=61-80%),5 (5=81-100%),5 (5=81-100%),4 (4=61-80%),5 (5=81-100%),5 (5=81-100%),5 (5=81-100%),5 (5=81-100%),4 (4=61-80%),5 (5=81-100%),5 (5=81-100%),4 (4=61-80%),–
Fc1cc(Cl)cnc1Oc1cccc(Cl)c1-c1cc(C(F)F)no1 [Compound A42],–,–,–,–,–,–,–,–,–,–,–,–,"Pre-emergence Test SOLNI percentage damage (five point scale) (Solanum nigrum (SOLNI) [1]; rate 250 g/ha): 4 (4=61-80%); Pre-emergence Test SETFA percentage damage (five point scale) (Setaria faberi (SETFA) [2]; rate 250 g/ha): 5 (5=81-100%); Pre-emergence Test ECHCG percentage damage (five point scale) ([3]; rate 250 g/ha): 5 (5=81-100%); Pre-emergence Test IPOHE percentage damage (five point scale) ([4]; rate 250 g/ha): 3 (3=41-60%); Pre-emergence Test AMARE percentage damage (five point scale) ([5]; rate 250 g/ha): 5 (5=81-100%); Pre-emergence Test LOLPE percentage damage (five point scale) (Lolium perenne (LOLPE) [6]; rate 250 g/ha): 5 (5=81-100%); percentage damage caused to the plant, SOLNI (Solanum nigrum (SOLNI) [7]; 250 g/ha): 5 (5=81-100%); percentage damage caused to the plant, SETFA (Setaria faberi (SETFA) [8]; 250 g/ha): 5 (5=81-100%); percentage damage caused to the plant, ECHCG ([9]; 250 g/ha): 4 (4=61-80%); percentage damage caused to the plant, IPOHE ([10]; 250 g/ha): 4 (4=61-80%); percentage damage caused to the plant, AMARE ([11]; 250 g/ha): 5 (5=81-100%); percentage damage caused to the plant, LOLPE (Lolium perenne (LOLPE) [12]; 250 g/ha): 5 (5=81-100%)"
